{
  "source": "patent US7173014B2",
  "about": "“HIV-specific synthetic oligonucleotides and methods of their use” (priority 1997, dated 2007)",
  "key": {"HIV-2 (ROD)": {"test_system": "HIV-2 (ROD)", "test": "XTT-based anti-HIV assay, HIV-2", "format": "cell-based", "conditions": "XTT assay", "source_text": "(§1) The initial experiment performed involved evaluation of Oligos 12, 32, and 41 against three laboratory strains of HIV-1 (IIIB, RF and SK1) and one strain of HIV-2 (ROD) in parallel with the positive control compound ddC in the XTT-based anti-HIV assay. All these oligonucleotides are active against both HIV-1 and HIV-2.\n(§2) CEM-SS sells (AIDS Research and Reference Reagent Program, NIH) or other established human T cell lines used in these experiments were passaged in T-150 flasks for use in the assay. On the day preceding the assay, the cells were split 1:2 to assure they would be in an exponential growth phase at time of infection. On the day of assay the cells were washed twice with tissue culture medium and resuspended in fresh tissue cultures medium. Total cell and viability counting was performed using a hemacytometer and trypan blue dye exclusion. Cell viability was greater than 95% for the cells to be utilized in the assay. The cells were pelleted and resuspended at 2.5×10^4 cells per ml in tissue culture medium. Cells were added to the drug-containing plates in a volume of 50 μl.\n(§3) A pretitered aliquot of virus was removed from the freezer −80° C.) and allowed to thaw slowly to room temperature in a biological safety cabinet. The virus was resuspended and diluted into tissue culture medium such that the amount of virus added to each well in a volume of 50 μl will be the amount determined to give complete cell killing at 6 days post-infection. In general the virus pools produced with the IIIB isolate of HIV required the addition of 5 μl of virus per well.\nEach plate contained cell control wells (cells only), virus control wells (cells plus virus), drug toxicity control wells (cells plus drug only), drug colorimetric control wells (drug only) as well as experimental wells (drug plus cells plus virus).\nAfter 6 days of incubation at 37° C. in a 5% CO2 incubator, the test plates were analyzed by staining with the tetrazolium dye XTT. XTT-tetrazolium is metabolized by the mitochondrial enzymes of metabolically active cells to a soluble formazan product, allowing the rapid quantitative analysis of the inhibition of HIV-induced cell killing by anti-HIV test substances. On day 6 post-infection plates were removed from the incubator and observed. The use of round bottom microtiter plates allows rapid macroscopic analysis of the activity of a given test compound by the evaluation of pellet size. The results of the macroscopic observations were confirmed and enhanced by further microscopic analysis.\nXTT solution was prepared daily as a stock of 1 mg/ml in PBS. Phenazine methosulfate (PMS) solution was prepared at 15 mg/ml in PBS and stored in the dark at −20° C. XTT/PMS stock was prepared immediately before use by diluting the PMS 1:100 into PBS and adding 40 μl per ml of XTT solution. Fifty microliters of XTT/PMS was added to each well of the plate and the plate was incubated for an additional 4 hours at 37° C. Adhesive plate sealers were used in place of the lids, the sealed plate was inverted several times to mix the soluble formazan product and the plate was read spectrophotometrically at A450 nm with a Molecular Devices Vmax plate reader."}, "[1]": {"test_system": "low passage, clinical strains of HIV-1", "test": "Anti-HIV activity in fresh human peripheral blood mononuclear cells", "format": "cell-based", "conditions": "fresh human PBMC; varies from strain to strain", "protocol": "In another experiment, the anti-HIV activity of Oligos 12, 32, and 41 was evaluated against a variety of low passage, clinical strains of HIV-1 in fresh human peripheral blood mononuclear cells. These strains include viruses obtained from pediatric patients attending the Children's Hospital University of Alabama at Birmingham as well as viruses representative of the various HIV-1 clades found throughout the world, shown below in TABLE 4.\nFresh human peripheral blood lymphocytes (PBL) were isolated from voluntary Red Cross donors, seronegative for HIV and HBV. Leukophoresed blood was diluted 1:1 with Dulbecco's phosphate buffered saline (PBS), layered over 14 ml of Ficoll-Hypaque density gradient in a 50 ml centrifuge tube. Tubes were then centrifuged for 30 minutes at 600×g. Banded PBLs were gently aspirated from the resulting interface and subsequently washed 2× with PBS by low speed centrifugation. After final wash, cells were enumerated by trypan blue exclusion and re-suspended at 1×10^7/ml in RPMI 1640 with 15% Fetal Bovine Serum (FBS), 2 mM L-glutamine, […] PHA-P and allowed to incubate for 48–72 hours at 37° C. After incubation, PBLs were centrifuged and reset in RPMI 1640 with 15% FBS, 2 mM L-glutamine, 100 U/ml penicillin, 100 μg/ml streptomycin, 10 μg/ml gentamycin, and 20 U/ml recombinant human IL-2. PBLs were maintained in this medium at a concentration of 1–2×10^6/ml with bi-weekly medium changes, until use in assay protocol. […]\nIn the standard PBL assay (MOI: 0.2), the assay was ended on day 7 following collection of cell free supernatant samples for reverse transcriptase activity assay. In the low MOI PBL assay (MOI: 0.02), supernatant samples were collected on day 6, day 11, and day 14 post-infection and analyzed for RT activity. […] Opti-Fluor O was added to each sample and incorporated radioactivity was quantified utilizing a liquid scintillation counter, (Wallac 1450 Microbetaplus, Gaithersburg, Md.)."}, "HIV-1 (IIIB, RF and SK1)": {"test_system": "HIV-1 (IIIB, RF and SK1)", "test": "XTT-based anti-HIV assay, laboratory strains of HIV-1", "format": "cell-based", "source_text": "as §1\nas §2, with “Cells were added to the drug-containing plates in a volume of 50 μl.” left out\nas §3, with “In general the virus pools produced with the IIIB isolate of HIV required the addition of 5 μl of virus per well.” left out\nAfter 6 days of incubation at 37° C. in a 5% CO2 incubator, the test plates were analyzed by staining with the tetrazolium dye XTT. XTT-tetrazolium is metabolized by the mitochondrial enzymes of metabolically active cells to a soluble formazan product, allowing the rapid quantitative analysis of the inhibition of HIV-induced cell killing by anti-HIV test substances. […]\nXTT solution was prepared daily as a stock of 1 mg/ml in PBS. […] Adhesive plate sealers were used in place of the lids, the sealed plate was inverted several times to mix the soluble formazan product and the plate was read spectrophotometrically at A450 nm with a Molecular Devices Vmax plate reader."}, "[2]": {"test_system": "monocyte-macrophage-tropic strains BaL and ADA", "test": "Anti-HIV assay in fresh human monocyte-macrophages", "format": "cell-based, HIV-1", "protocol": "In addition to these T-tropic strains, the activity of the compounds was also evaluated against the monocyte-macrophage strains BaL and ADA. Oligos 12 and 32 according to the invention, as well as Oligo 41 are active against low passage clinical T-tropic strains of HIV-1. The activity of the compounds varies from strain to strain. The compounds were not active against the monocyte-macrophage-tropic strains BaL and ADA.\nFor isolation of adherent cells, 3×10^6 non-PHA stimulated peripheral blood cells were resuspended in Hanks buffered saline (with calcium and magnesium) supplemented with 10% human AB serum. The cells were placed in a 24-well microtiter plate at 37° C. for 2 hours. Non-adherent cells were removed by vigorously washing six times. The adherent cells were cultured for 7 days in RPMI 1640 tissue culture medium with 15% fetal bovine serum. The cultures were carefully monitored for confluency during this incubation period. Infection of the cells was performed with the monocytotropic HIV-1 strains BaL or ADA and the matched pair of AZT-sensitive and AZT-resistant virus isolates. Each of these virus isolates was obtained from the NIAID AIDS Research and Reference Reagent Program. High titer pools of each of these viruses have been harvested from infected cultures of peripheral blood adherent cells and frozen in 1.0 ml aliquots at −80° C. Monocyte-macrophage monolayers were infected at an MOI of 0.1. Compounds to be evaluated in the monocyte-macrophage assay are added to the monolayers shortly before infection in order to maximize the potential for identifying active compounds.\nAt 2 days post-infection, the medium was decanted and the cultures washed twice with complete medium in order to remove excess virus. […] Control curves are generated in each assay to accurately quantify the amount of capsid protein in each sample. Data was obtained by spectrophotometric analysis at 450 nm using a plate reader (Molecular Devices Vmax). P24 concentrations were calculated from the optical density values by use of the Molecular Device software package Soft Max."}, "[3]": {"test_system": "clinical strains of HIV-1", "test": "AZT and ddI sensitivity of clinical strains of HIV-1 (Table 3)", "format": "cell-based", "protocol": "To determine the preclinical range of anti-HIV activity of various oligonucleotides of the invention (see TABLE 2), evaluations were performed with Oligo 12 (having SEQ ID NO:1), Oligo 32 (SEQ ID NO:3) and Oligo 41 (SEQ ID NO:6). These evaluations were performed to determine the activity of these compounds against a variety of wild type and drug resistant strains of HIV 1, including both laboratory derived and low passage, clinical strains of virus and T lymphocyte tropic and monocyte macrophage tropic viruses such as those listed below in TABLE 3."}},
  "note": "Read-outs that look alike come from different tables or passages of the source.",
  "data": [
    {"molecule": "CGCACCCATCTCTCTCCUUCU (chemistry not given here) [Oligo 32]", "values": [
      {"measurement": "level of activity against the HIV-2 strain ROD", "setting": "HIV-2 (ROD); compared with the HIV-1 strains", "value": "enhanced level of activity"},
      {"measurement": "activity against HIV-2", "setting": "HIV-2 (ROD); strain ROD", "value": "active"},
      {"measurement": "activity against low passage clinical T-tropic strains of HIV-1", "setting": "[1]", "value": "active"},
      {"measurement": "activity against HIV-1", "setting": "HIV-1 (IIIB, RF and SK1)", "value": "active"},
      {"measurement": "activity against monocyte-macrophage-tropic strains BaL and ADA", "setting": "[2]", "value": "not active"}
    ]},
    {"molecule": "O=c1[nH]cnc2c1ncn2[C@H]1CC[C@@H](CO)O1", "note": "[ddi, dideoxyinosine]", "values": [
      {"measurement": "IC50", "setting": "[3]; isolate BAKI, tropism L, read-out: ddi IC50", "value": 2610, "unit": "nM"},
      {"measurement": "IC50", "setting": "[3]; isolate ROJO, tropism L, read-out: ddi IC50", "value": 870, "unit": "nM"},
      {"measurement": "IC50", "setting": "[3]; isolate ROMA, tropism M, read-out: ddi IC50", "value": 160, "unit": "nM"},
      {"measurement": "IC50", "setting": "[3]; isolate SLKA, tropism M, read-out: ddi IC50", "value": 320, "unit": "nM"},
      {"measurement": "IC50", "setting": "[3]; isolate STDA, tropism L, read-out: ddi IC50", "value": 230, "unit": "nM"},
      {"measurement": "IC50", "setting": "[3]; isolate TEKI, tropism L, read-out: ddi IC50", "value": 370, "unit": "nM"},
      {"measurement": "IC50", "setting": "[3]; isolate TEKI, tropism M, read-out: ddi IC50", "value": 1700, "unit": "nM"},
      {"measurement": "IC50", "setting": "[3]; isolate VIHU, tropism L, read-out: ddi IC50", "value": 1210, "unit": "nM"},
      {"measurement": "IC50", "setting": "[3]; isolate WEJO, tropism L, read-out: ddi IC50", "value": 2180, "unit": "nM"},
      {"measurement": "IC50", "setting": "[3]; isolate WOME, tropism L, read-out: ddi IC50", "value": 410, "unit": "nM"}
    ]},
    {"molecule": "Cc1cn([C@H]2C[C@H](N=[N+]=[N-])[C@@H](CO)O2)c(=O)[nH]c1=O", "note": "[AZT, 3′-azido-3′-deoxythymidine]", "values": [
      {"measurement": "IC50", "setting": "[3]; Human immunodeficiency virus 1, isolate BAKI, tropism L, read-out: AZT IC50", "value": 49, "unit": "nM"},
      {"measurement": "IC50", "setting": "[3]; Human immunodeficiency virus 1, isolate BLCH, tropism L, read-out: AZT IC50", "value": 10, "unit": "nM"},
      {"measurement": "IC50", "setting": "[3]; Human immunodeficiency virus 1, isolate DEJO, tropism L, read-out: AZT IC50", "value": 15, "unit": "nM"},
      {"measurement": "IC50", "setting": "[3]; Human immunodeficiency virus 1, isolate RIARL, tropism L, read-out: AZT IC50", "value": 10, "unit": "nM"},
      {"measurement": "IC50", "setting": "[3]; Human immunodeficiency virus 1, isolate ROJO, tropism L, read-out: AZT IC50", "value": 16, "unit": "nM"},
      {"measurement": "IC50", "setting": "[3]; Human immunodeficiency virus 1, isolate ROMA, tropism M, read-out: AZT IC50", "value": 16, "unit": "nM"},
      {"measurement": "IC50", "setting": "[3]; Human immunodeficiency virus 1, isolate SLKA, tropism M, read-out: AZT IC50", "value": 25, "unit": "nM"},
      {"measurement": "IC50", "setting": "[3]; Human immunodeficiency virus 1, isolate STDA, tropism L, read-out: AZT IC50", "value": 17, "unit": "nM"},
      {"measurement": "IC50", "setting": "[3]; Human immunodeficiency virus 1, isolate TEKI, tropism L, read-out: AZT IC50", "value": 29, "unit": "nM"},
      {"measurement": "IC50", "setting": "[3]; Human immunodeficiency virus 1, isolate TEKI, tropism M, read-out: AZT IC50", "value": 16, "unit": "nM"},
      {"measurement": "IC50", "setting": "[3]; Human immunodeficiency virus 1, isolate VIHU, tropism L, read-out: AZT IC50", "value": 16, "unit": "nM"},
      {"measurement": "IC50", "setting": "[3]; Human immunodeficiency virus 1, isolate WEJO, tropism L, read-out: AZT IC50", "value": 56, "unit": "nM"},
      {"measurement": "IC50", "setting": "[3]; Human immunodeficiency virus 1, isolate WOME, tropism L, read-out: AZT IC50", "value": 16, "unit": "nM"}
    ]}
  ]
}
